Laboratory results as given in PMC6269716 (2013).

Key:
[1] = test system: CKIT1 (c-kit-1, FRET) (DNA, G4) AGAGGGAGGGCGCTGGGAGGAGGGGCT; experiment: FRET melting; details: K+ (60 mM); potassium cacodylate pH 7.4; 1 µM compound; 200 nM DNA
[2] = test system: BCL2 (FRET) (DNA, G4) GGGCGCGGGAGGAAGGGGGCGGG; experiment: FRET melting; details: K+ (60 mM); potassium cacodylate pH 7.4; 1 µM compound; 200 nM DNA
[3] = test system: F21T (HTelo-21, FRET) (DNA, G4) GGGTTAGGGTTAGGGTTAGGG; experiment: FRET melting; details: K+ (60 mM); potassium cacodylate pH 7.4; 1 µM compound; 200 nM DNA
[4] = test system: T Loop (DNA, hairpin, hexaethyleneglycol (HEG) linker between nucleotides 10 and 11 as hairpin loop) TATAGCTATATATAGCTATA; experiment: FRET melting; details: K+ (60 mM); potassium cacodylate pH 7.4; 1 µM compound; 200 nM DNA
[5] = test system: HTelo21 (DNA, G4) GGGTTAGGGTTAGGGTTAGGG; experiment: ESI-MS peak intensities; details: NH4+ (150 mM ammonium acetate); 15% methanol added before injection; 5 µM DNA; site 1 of 2
[6] = test system: DK66 (DNA, duplex) CGCGAATTCGCG; experiment: ESI-MS peak intensities; details: NH4+ (150 mM ammonium acetate), 15% methanol added before injection, 5 µM DNA

| SMILES | ΔTm [1] [°C] | ΔTm [2] [°C] | ΔTm [3] [°C] | ΔTm [4] [°C] | Log K1 [5] | Log K1 ([6]; site 1 of 2) | Log K1 [6] |
| --- | --- | --- | --- | --- | --- | --- | --- |
| O=C(CCCCCN1CCCCC1)c1ccc2c(c1)Cc1cc(C(=O)CCCCCN3CCCCC3)ccc1O2 | 1.0 ± 0.1 | 0.7 ± 0.1 | 1.3 ± 0.1 | 0.4 ± 0.1 | 4.7 ± 0.1 | 3.8 ± 0.2 | – |
| CN1CCN(CCCCCC(=O)c2ccc3oc4ccc(C(=O)CCCCCN5CCN(C)CC5)cc4c(=O)c3c2)CC1 | – | – | – | – | 4.1 ± 0.1 | 1.8 ± 0.2 | – |
| O=C(CCCCCN1CCCCC1)c1ccc2c(c1)C(CCCC1c3cc(C(=O)CCCCCN4CCCCC4)ccc3Oc3ccc(C(=O)CCCCCN4CCCCC4)cc31)c1cc(C(=O)CCCCCN3CCCCC3)ccc1O2 | – | – | – | – | 5.8 ± 0.1 | 3.9 ± 0.1 | – |
| CN(C)CCCCOc1ccc2c(=O)c3ccc(OCCCCN(C)C)cc3oc2c1 | – | – | – | – | 4.7 ± 0.1 | 3.6 ± 0.1 | – |
| CN(C)CCCCCC(=O)c1ccc2oc3ccc(C(=O)CCCCCN(C)C)cc3c(=O)c2c1 | – | – | – | – | 4.0 ± 0.1 | 3.3 ± 0.2 | – |
| O=C(CCCCCN1CCCCC1)c1ccc2oc3ccc(C(=O)CCCCCN4CCCCC4)cc3c(=O)c2c1 | – | – | – | – | 4.4 ± 0.1 | 3.7 ± 0.1 | – |
| CN(C)CCCCCC(=O)c1ccc2c(c1)Cc1cc(C(=O)CCCCCN(C)C)ccc1O2 | – | – | – | – | 4.6 ± 0.1 | 3.4 ± 0.2 | – |
| CN1CCN(CCCCCC(=O)c2ccc3c(c2)Cc2cc(C(=O)CCCCCN4CCN(C)CC4)ccc2O3)CC1 | – | – | – | – | 4.4 ± 0.1 | 3.7 ± 0.1 | – |

Results, then the compound that gave them:

| ΔTm [1] [°C] | ΔTm [2] [°C] | ΔTm [3] [°C] | ΔTm [4] [°C] | Log K1 [5] | Log K1 ([6]; site 1 of 2) | Log K1 [6] | SMILES |
| --- | --- | --- | --- | --- | --- | --- | --- |
| – | – | – | – | 4.3 ± 0.1 | 3.5 ± 0.1 | – | CN1CCN(CCCCOc2ccc3c(=O)c4ccc(OCCCCN5CCN(C)CC5)cc4oc3c2)CC1 |
| – | – | – | – | 4.7 ± 0.1 | – | 3.4 ± 0.1 | O=c1c2ccc(OCCCCN3CCCCC3)cc2oc2cc(OCCCCN3CCCCC3)ccc12 |
| 7.9 ± 0.1 | 4.8 ± 0.1 | 11.9 ± 0.1 | 2.2 ± 0.1 | 5.2 ± 0.4 | 3.6 ± 0.3 | – | CN(C)CCCCCC(=O)c1ccc2c(c1)C(CCCCN(C)C)c1cc(C(=O)CCCCCN(C)C)ccc1O2 |
